Reference: ChEMBL document CHEMBL5537133, “Rational design and optimization of novel 4-methyl quinazoline derivatives as PI3K/HDAC dual inhibitors with benzamide as zinc binding moiety for the treatment of acute myeloid leukemia” (Eur J Med Chem, 2024)

Experiments:
[1] = system: NB-4; test: Antiproliferative activity against human NB4 cells assessed as reduction in cell viability incubated for 72 hrs by CCK-8 assay; type: functional, cell-based; conditions: NB-4, 72 h
[2] = molecular target: Phosphatidylinositol 4,5-bisphosphate 3-kinase catalytic subunit gamma isoform (Homo sapiens, UniProt P48736); test: Inhibition of PI3Kgamma (unknown origin) using PIP2 as substrate incubated for 1 hr in presence of ATP by ADP-Glo assay
[3] = molecular target: Histone deacetylase 2 (Homo sapiens, UniProt Q92769); test: Inhibition of C-terminal His6-FLAG-tagged human recombinant HDAC2 (1 to 488 residues) expressed in Sf9 cells using Ac-peptide as substrate preincubated for 15 mins followed by substrate addition and measured after 1 hr by plate reader analysis
[4] = AUC(0 to infinity) in ICR mouse at 6 mg/kg, iv measured after 24 hrs by LC-MS/MS analysis; type: ADME, organism-based; conditions: in vivo
[5] = Toxicity in BALB/c nude mouse xenografted with human MV4-11 cells assessed as change in body weight at 60 mg/kg, po administered only daily for 14 days and measured twice a week; type: organism-based; conditions: in vivo, 336 h, time 14 day
[6] = molecular target: Histone deacetylase 8 (Homo sapiens, UniProt Q9BY41); test: Inhibition of C-terminal His-tagged human recombinant HDAC8 (1 to 377 end residues) expressed in Sf9 cells using Ac-peptide as substrate incubated for 1 hr by plate reader analysis
[7] = system: Ramos; test: Antiproliferative activity against human Ramos cells assessed as reduction in cell viability incubated for 72 hrs by CCK-8 assay
[8] = system: EL4; test: Antiproliferative activity against mouse EL4 cells assessed as reduction in cell viability incubated for 72 hrs by CCK-8 assay; type: functional, cell-based; conditions: EL4, 72 h
[9] = AUC(0 to infinity) in ICR mouse at 60 mg/kg, po measured after 24 hrs by LC-MS/MS analysis; type: ADME, organism-based; conditions: in vivo
[10] = system: L1210; test: Antiproliferative activity against mouse L1210 cells assessed as reduction in cell viability incubated for 72 hrs by CCK-8 assay; type: functional, cell-based; conditions: L1210, 72 h
[11] = molecular target: Phosphatidylinositol 4,5-bisphosphate 3-kinase catalytic subunit alpha isoform (Homo sapiens, UniProt P42336)
Description: Inhibition of PI3Kalpha (unknown origin) using PIP2 as substrate incubated for 1 hr in presence of ATP by ADP-Glo assay

[12] = Apparent volume of distribution in ICR mouse at 6 mg/kg, iv measured after 24 hrs by LC-MS/MS analysis; type: ADME, organism-based; conditions: in vivo
[13] = AUC(0 to t) in ICR mouse at 6 mg/kg, iv measured after 24 hrs by LC-MS/MS analysis; type: ADME, organism-based; conditions: in vivo
[14] = Terminal half life in ICR mouse at 6 mg/kg, iv measured after 24 hrs by LC-MS/MS analysis; type: ADME, organism-based; conditions: in vivo
[15] = system: MV4-11; test: Antitumor activity against human MV4-11 cells xenografted in BALB/c nude mouse assessed as tumor growth inhibition at 20 mg/kg, ip administered once daily for 14 days relative to control; type: functional; conditions: MV4-11, 336 h, time 14 day, read-out: TGI
[16] = system: MV4-11; test: Antitumor activity against human MV4-11 cells xenografted in BALB/c nude mouse assessed as tumor growth inhibition at 10 mg/kg, ip administered once daily for 14 days relative to control; type: functional; conditions: MV4-11, 336 h, time 14 day, read-out: TGI
[17] = Antiproliferative activity against human MINO cells assessed as reduction in cell viability incubated for 72 hrs by CCK-8 assay
[18] = Tmax in ICR mouse at 60 mg/kg, po measured after 24 hrs by LC-MS/MS analysis; type: ADME, organism-based; conditions: in vivo
[19] = Oral bioavailability in ICR mouse at 60 mg/kg measured after 24 hrs by LC-MS/MS analysis; type: ADME, organism-based; conditions: in vivo
[20] = system: DOHH-2; test: Antiproliferative activity against human DOHH-2 cells assessed as reduction in cell viability incubated for 72 hrs by CCK-8 assay; type: functional, cell-based; conditions: DOHH-2, 72 h
[21] = Terminal half life in ICR mouse at 60 mg/kg, po measured after 24 hrs by LC-MS/MS analysis; type: ADME, organism-based; conditions: in vivo, read-out: beta t1/2 (converted)
[22] = molecular target: Protein deacetylase HDAC6 (Homo sapiens, UniProt Q9UBN7); test: Inhibition of HDAC6 (unknown origin)
[23] = molecular target: Histone deacetylase 4 (Homo sapiens, UniProt P56524); test: Inhibition of N-terminal GST-tagged and C-terminal His-tagged human HDAC4 (627 to 1084 end residues) expressed in baculovirus infected Sf9 cells using Ac-peptide as substrate incubated for 1 hr by plate reader analysis
[24] = system: BaF3; test: Antiproliferative activity against mouse BaF3 cells assessed as reduction in cell viability incubated for 72 hrs by CCK-8 assay; type: functional, cell-based; conditions: BaF3, 72 h
[25] = Cmax in ICR mouse at 60 mg/kg, po measured after 24 hrs by LC-MS/MS analysis; type: ADME, organism-based; conditions: in vivo
[26] = system: MV4-11; test: Antiproliferative activity against human MV4-11 cells assessed as reduction in cell viability incubated for 72 hrs by CCK-8 assay; type: functional, cell-based; conditions: MV4-11, 72 h
[27] = molecular target: Phosphatidylinositol 4,5-bisphosphate 3-kinase catalytic subunit beta isoform (Homo sapiens, UniProt P42338); test: Inhibition of PI3Kbeta (unknown origin) using PIP2 as substrate incubated for 1 hr in presence of ATP by ADP-Glo assay
[28] = molecular target: Histone deacetylase 1 (Homo sapiens, UniProt Q13547)
Description: Inhibition of C-terminal 6His-FLAG-tagged human recombinant HDAC1 (1 to 482 residues) expressed in Sf9 cells using Ac-peptide as substrate preincubated for 15 mins followed by substrate addition and measured after 1 hr by plate reader analysis

[29] = Toxicity in BALB/c nude mouse xenografted with human MV4-11 cells assessed as change in body weight at 10 to 20 mg/kg, ip administered only daily for 14 days and measured twice a week; type: organism-based; conditions: in vivo, 336 h, dose 10-20 mg/kg, time 14 day
[30] = AUC(0 to t) in ICR mouse at 60 mg/kg, po measured after 24 hrs by LC-MS/MS analysis; type: ADME, organism-based; conditions: in vivo
[31] = system: Raji; test: Antiproliferative activity against human Raji cells assessed as reduction in cell viability incubated for 72 hrs by CCK-8 assay; type: functional, cell-based
[32] = system: Friend leukemia cell line; test: Antiproliferative activity against mouse Friend leukemia cell line assessed as reduction in cell viability incubated for 72 hrs by CCK-8 assay; type: functional, cell-based
[33] = system: HL-60; test: Antiproliferative activity against human HL-60 cells assessed as reduction in cell viability incubated for 72 hrs by CCK-8 assay; type: functional, cell-based; conditions: HL-60, 72 h
[34] = system: MV4-11; test: Antitumor activity against human MV4-11 cells xenografted in BALB/c nude mouse assessed as tumor growth inhibition at 60 mg/kg, po administered once daily for 14 days relative to control; type: functional; conditions: MV4-11, 336 h, time 14 day, read-out: TGI
[35] = molecular target: Serine/threonine-protein kinase mTOR (Homo sapiens, UniProt P42345); test: Inhibition of N-terminal FLAG-tagged recombinant human mTOR (1362 to end residues) using ULight-4E-BP1 (Thr37/46) peptide as substrate incubated for 30 mins in presence of ATP by LANCE ultra assay
[36] = molecular target: Phosphatidylinositol 4,5-bisphosphate 3-kinase catalytic subunit delta isoform (Homo sapiens, UniProt O00329); test: Inhibition of PI3Kdelta (unknown origin) using PIP2 as substrate incubated for 1 hr in presence of ATP by ADP-Glo assay
[37] = molecular target: Histone deacetylase 3 (Homo sapiens, UniProt O15379); test: Inhibition of HDAC3 (unknown origin)
[38] = molecular target: Histone deacetylase 11 (Homo sapiens, UniProt Q96DB2); test: Inhibition of human HDAC11 (1 to 347 end residues) expressed in Sf9 cells using Ac-peptide as substrate incubated for 1 hr by plate reader analysis
[39] = system: MV4-11; test: Antiproliferative activity against human MV4-11 cells assessed as reduction in cell viability incubated for 72 hrs in presence of chidamide by CCK-8 assay; type: functional, cell-based; conditions: MV4-11, 72 h
[40] = Cmax in ICR mouse at 6 mg/kg, iv measured after 24 hrs by LC-MS/MS analysis; type: ADME, organism-based; conditions: in vivo

Sequence of Phosphatidylinositol 4,5-bisphosphate 3-kinase catalytic subunit delta isoform (O00329 whole entry, canonical isoform): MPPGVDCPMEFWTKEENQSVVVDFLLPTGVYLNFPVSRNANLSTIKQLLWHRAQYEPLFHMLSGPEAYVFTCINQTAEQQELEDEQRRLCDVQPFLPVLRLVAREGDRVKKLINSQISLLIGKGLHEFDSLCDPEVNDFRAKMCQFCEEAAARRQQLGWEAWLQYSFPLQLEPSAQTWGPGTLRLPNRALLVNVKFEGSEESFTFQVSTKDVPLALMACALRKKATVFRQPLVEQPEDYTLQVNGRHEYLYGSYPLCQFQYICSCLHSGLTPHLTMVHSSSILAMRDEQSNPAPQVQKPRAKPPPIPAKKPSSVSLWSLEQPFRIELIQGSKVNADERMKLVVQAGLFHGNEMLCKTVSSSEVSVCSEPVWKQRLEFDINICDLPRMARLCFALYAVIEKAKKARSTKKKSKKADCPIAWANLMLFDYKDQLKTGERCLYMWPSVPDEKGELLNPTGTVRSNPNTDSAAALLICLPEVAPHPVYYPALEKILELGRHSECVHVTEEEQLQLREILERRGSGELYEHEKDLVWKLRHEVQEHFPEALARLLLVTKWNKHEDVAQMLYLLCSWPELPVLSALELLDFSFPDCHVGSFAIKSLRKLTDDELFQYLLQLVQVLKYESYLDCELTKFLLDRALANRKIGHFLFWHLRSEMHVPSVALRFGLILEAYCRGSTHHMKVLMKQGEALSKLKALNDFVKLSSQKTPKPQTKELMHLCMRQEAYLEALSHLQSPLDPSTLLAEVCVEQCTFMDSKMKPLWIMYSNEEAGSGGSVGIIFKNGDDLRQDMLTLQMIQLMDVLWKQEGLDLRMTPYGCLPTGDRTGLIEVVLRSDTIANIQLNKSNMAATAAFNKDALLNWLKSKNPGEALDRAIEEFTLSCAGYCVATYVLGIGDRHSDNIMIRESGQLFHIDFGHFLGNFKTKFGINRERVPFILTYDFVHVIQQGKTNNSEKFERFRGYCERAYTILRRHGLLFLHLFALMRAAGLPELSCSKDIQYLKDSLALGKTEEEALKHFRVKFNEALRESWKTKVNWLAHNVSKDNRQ
Sequence of Histone deacetylase 1 (Q13547 whole entry): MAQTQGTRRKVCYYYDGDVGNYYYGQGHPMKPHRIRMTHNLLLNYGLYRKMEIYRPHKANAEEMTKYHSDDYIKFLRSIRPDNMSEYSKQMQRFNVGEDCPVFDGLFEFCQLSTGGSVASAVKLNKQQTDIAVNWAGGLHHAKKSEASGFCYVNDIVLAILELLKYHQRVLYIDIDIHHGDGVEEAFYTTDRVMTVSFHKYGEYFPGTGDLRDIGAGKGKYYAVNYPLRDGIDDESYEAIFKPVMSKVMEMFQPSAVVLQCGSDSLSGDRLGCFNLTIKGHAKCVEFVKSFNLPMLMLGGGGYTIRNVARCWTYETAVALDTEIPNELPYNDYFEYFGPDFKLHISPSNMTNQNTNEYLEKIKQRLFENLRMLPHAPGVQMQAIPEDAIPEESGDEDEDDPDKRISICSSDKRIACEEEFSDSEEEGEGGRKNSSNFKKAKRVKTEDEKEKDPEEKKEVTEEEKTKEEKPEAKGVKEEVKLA
Sequence of Histone deacetylase 8 (Q9BY41 whole entry): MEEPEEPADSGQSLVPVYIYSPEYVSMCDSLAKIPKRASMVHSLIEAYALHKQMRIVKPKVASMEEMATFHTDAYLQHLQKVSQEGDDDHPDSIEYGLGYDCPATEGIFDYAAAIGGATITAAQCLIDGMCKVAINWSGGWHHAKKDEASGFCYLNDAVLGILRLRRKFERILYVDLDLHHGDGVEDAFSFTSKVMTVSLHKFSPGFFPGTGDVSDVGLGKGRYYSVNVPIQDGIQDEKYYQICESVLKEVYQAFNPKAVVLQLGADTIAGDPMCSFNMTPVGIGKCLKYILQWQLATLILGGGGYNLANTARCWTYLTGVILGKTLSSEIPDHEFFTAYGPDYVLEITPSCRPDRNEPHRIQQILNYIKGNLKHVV
Sequence of Histone deacetylase 3 (O15379 whole entry): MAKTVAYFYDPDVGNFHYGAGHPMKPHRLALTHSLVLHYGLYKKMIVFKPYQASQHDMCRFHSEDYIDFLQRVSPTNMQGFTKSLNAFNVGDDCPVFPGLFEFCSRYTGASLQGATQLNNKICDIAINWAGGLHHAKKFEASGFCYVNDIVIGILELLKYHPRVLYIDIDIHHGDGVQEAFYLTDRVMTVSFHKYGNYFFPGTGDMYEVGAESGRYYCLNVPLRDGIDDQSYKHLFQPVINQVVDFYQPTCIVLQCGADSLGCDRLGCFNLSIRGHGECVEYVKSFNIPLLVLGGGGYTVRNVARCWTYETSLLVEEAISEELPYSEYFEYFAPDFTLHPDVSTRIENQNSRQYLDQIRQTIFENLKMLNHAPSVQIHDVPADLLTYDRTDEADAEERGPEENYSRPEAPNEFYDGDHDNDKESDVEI
Sequence of Histone deacetylase 2 (Q92769 whole entry, the tested form may be a part): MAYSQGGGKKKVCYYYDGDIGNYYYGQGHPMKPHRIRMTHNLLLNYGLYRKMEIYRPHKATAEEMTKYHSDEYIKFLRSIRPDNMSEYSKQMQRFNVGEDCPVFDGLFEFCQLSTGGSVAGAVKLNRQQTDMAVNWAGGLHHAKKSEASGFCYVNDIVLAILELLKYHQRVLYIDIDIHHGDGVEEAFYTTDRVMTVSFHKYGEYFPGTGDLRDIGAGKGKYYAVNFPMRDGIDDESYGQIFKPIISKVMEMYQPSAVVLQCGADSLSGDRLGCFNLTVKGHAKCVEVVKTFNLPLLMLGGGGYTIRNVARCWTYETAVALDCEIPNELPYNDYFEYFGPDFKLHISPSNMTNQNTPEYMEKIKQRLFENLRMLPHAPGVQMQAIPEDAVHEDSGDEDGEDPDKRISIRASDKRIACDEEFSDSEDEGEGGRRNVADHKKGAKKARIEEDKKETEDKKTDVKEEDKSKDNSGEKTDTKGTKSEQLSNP
Sequence of Phosphatidylinositol 4,5-bisphosphate 3-kinase catalytic subunit gamma isoform (P48736 whole entry, the tested form may be a part, canonical isoform): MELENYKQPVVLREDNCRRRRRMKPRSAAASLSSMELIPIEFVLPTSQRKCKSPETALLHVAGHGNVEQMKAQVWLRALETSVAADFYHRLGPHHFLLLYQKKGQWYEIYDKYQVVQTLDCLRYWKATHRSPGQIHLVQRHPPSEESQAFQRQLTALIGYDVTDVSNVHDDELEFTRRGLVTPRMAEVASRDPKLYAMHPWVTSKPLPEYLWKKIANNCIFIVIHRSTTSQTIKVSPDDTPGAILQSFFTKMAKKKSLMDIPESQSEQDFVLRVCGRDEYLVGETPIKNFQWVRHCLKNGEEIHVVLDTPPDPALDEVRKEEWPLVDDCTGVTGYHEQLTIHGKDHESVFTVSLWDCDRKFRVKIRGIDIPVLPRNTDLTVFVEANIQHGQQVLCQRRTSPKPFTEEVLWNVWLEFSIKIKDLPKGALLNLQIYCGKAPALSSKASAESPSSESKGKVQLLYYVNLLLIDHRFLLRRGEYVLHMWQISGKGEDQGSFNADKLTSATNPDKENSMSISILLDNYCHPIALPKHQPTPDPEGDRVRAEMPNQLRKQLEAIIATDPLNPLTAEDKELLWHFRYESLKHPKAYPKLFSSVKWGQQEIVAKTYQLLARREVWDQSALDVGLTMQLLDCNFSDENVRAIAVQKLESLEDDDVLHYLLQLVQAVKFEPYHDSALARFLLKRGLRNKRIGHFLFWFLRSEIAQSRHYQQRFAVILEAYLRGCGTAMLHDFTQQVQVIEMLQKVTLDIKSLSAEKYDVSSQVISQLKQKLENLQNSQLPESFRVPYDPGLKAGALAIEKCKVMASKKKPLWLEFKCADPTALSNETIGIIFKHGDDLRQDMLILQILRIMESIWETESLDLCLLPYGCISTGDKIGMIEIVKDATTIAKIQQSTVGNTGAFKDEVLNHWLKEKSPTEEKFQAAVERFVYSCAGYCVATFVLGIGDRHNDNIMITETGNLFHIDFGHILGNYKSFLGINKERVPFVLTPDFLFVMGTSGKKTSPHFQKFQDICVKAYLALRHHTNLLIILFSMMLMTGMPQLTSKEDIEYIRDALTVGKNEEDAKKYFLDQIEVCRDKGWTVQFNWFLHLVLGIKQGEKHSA
Sequence of Histone deacetylase 4 (P56524 whole entry): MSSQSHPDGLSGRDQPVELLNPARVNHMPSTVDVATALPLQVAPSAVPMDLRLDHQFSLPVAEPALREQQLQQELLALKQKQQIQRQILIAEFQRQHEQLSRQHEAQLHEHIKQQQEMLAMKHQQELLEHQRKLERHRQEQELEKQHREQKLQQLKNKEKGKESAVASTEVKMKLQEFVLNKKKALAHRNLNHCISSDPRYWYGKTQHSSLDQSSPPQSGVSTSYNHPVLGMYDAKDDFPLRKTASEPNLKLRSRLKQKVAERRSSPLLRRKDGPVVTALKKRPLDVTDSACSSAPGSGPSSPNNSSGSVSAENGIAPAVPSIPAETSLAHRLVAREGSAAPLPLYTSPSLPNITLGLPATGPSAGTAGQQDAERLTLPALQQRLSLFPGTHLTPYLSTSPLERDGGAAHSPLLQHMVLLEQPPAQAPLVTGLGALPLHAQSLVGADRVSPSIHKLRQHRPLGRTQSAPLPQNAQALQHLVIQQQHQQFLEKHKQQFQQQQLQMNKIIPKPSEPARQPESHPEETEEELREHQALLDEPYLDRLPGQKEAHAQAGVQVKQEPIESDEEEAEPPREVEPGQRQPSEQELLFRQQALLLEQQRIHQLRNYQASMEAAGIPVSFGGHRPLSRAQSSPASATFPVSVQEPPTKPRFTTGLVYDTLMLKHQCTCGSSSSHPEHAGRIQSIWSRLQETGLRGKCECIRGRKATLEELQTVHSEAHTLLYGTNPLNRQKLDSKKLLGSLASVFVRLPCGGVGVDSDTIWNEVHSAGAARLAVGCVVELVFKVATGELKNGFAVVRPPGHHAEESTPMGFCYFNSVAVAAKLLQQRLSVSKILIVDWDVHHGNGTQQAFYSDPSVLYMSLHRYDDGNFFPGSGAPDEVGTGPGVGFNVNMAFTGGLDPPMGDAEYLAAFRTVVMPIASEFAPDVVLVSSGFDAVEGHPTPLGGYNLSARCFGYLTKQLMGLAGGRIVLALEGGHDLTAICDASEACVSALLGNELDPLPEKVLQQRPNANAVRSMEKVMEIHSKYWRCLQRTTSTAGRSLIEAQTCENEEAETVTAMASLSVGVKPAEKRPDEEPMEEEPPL

| Structure (SMILES) | IC50 [1] [nM] | IC50 [2] [nM] | IC50 [3] [nM] | AUC [4] [ng·h/mL] | Activity [5] | IC50 [6] [nM] | IC50 [7] [nM] | IC50 [8] [nM] | IC50 [10] [nM] | IC50 [11] [nM] | AUC(0-t) at 24 h [13] [ng·h/mL] | beta t1/2 [14] [h] | inhibition in vivo at 20 mg/kg [15] [%] | inhibition in vivo at 10 mg/kg [16] [%] | IC50 [17] [nM] | Tmax [18] [h] | IC50 [20] [nM] | half-life [21] [h] | IC50 [22] [nM] | IC50 [26] [nM] | also measured |
| --- | --- | --- | --- | --- | --- | --- | --- | --- | --- | --- | --- | --- | --- | --- | --- | --- | --- | --- | --- | --- | --- |
| COc1ncc(-c2cc(OCCCc3ccc(C(=O)Nc4ccccc4N)cc3)c3ncnc(C)c3c2)cc1NS(=O)(=O)c1ccc(F)cc1F | 370 | 15 | 84.5 | 4930 | Non-Toxic | > 10000 | 5000 | 840 | 850 | 0.26 | 4880 | 2.43 | 60.7 | 50 | 6600 | 0.25 | 5300 | 4.46 | > 10000 | 50 | AUC(0-inf) ([9]; ICR): 1710 ng·h/mL; Vz [12]: 4.27 L/kg; bioavailability [19]: 3.5%; IC50 [23]: > 10000 nM; IC50 [24]: 80 nM; Cmax [25]: 306 ng/mL; IC50 [27]: 0.62 nM; IC50 [28]: 28 nM; Activity [29]: Non-Toxic; AUC(0-t) at 24 h [30]: 1230 ng·h/mL; IC50 [31]: 4600 nM; IC50 [32]: 320 nM; IC50 [33]: 330 nM; inhibition in vivo at 60 mg/kg [34]: 64.3%; IC50 [35]: 9.5 nM; IC50 [36]: 1.8 nM; IC50 [37]: 6.6 nM; IC50 [38]: 3520 nM |
| Cc1nc(NC(=O)N2CCC[C@H]2C(N)=O)sc1-c1ccnc(C(C)(C)C(F)(F)F)c1 [ALPELISIB] | – | – | – | – | – | – | – | – | – | – | – | – | – | – | – | – | – | – | – | 3500 | IC50 [39]: 190 nM |
| COc1ncc(-c2cc(OCCCCCCC(=O)Nc3ccccc3N)c3ncnc(C)c3c2)cc1NS(=O)(=O)c1ccc(F)cc1F | 40 | 1.8 | 181 | 1605 | Non-Toxic | > 10000 | 4400 | 560 | 140 | 0.23 | 1580 | 2.3 | 75 | 53.6 | 5400 | 0.52 | 5400 | 1.38 | > 10000 | 4 | Cmax [40]: 8310 ng/mL; AUC ([9]; po, 60 mg/kg, 24 h): 5042 ng·h/mL; IC50 [23]: > 10000 nM; IC50 [24]: 130 nM; Cmax [25]: 3780 ng/mL; IC50 [27]: 0.66 nM; IC50 [28]: 172 nM; Activity [29]: Non-Toxic; AUC(0-t) at 24 h [30]: 5020 ng·h/mL; IC50 [31]: 6300 nM; IC50 [32]: 350 nM; IC50 [33]: 210 nM; inhibition in vivo at 60 mg/kg [34]: 53.6%; IC50 [35]: 3.4 nM; IC50 [36]: 1.9 nM; IC50 [37]: 899 nM; IC50 [38]: > 10000 nM |
